Results from US20190202820A1, “PROCESS FOR PRODUCING FLUORINATED COMPOUNDS USING ALCOHOL SOLVENT HAVING CARBONYL GROUP” (FUTURECHEM CO., LTD., priority 2018, published 2019).
“Also recorded” adds a separate entry of the source. Where two headings read alike, the source gives them in different places.

Test: Comparison of solubility of the precursor compound according to the kind of reaction solvent (observation with the naked eye)
Assay type: physicochemical
Details: for State of the solution when the temperature dropped to room temperature: t-amyl alcohol, then dropped to room temperature
Description: The solubility of FP-CIT, FDG, FLT, FMISO, and FC119S at room temperature and at 60° C. according to the different solvents of methyl 2-hydroxyisobutyrate solvent of the present invention and t-amyl alcohol solvent of the prior art (KR 10-0789847) was investigated.

[1] = reaction solvent methyl 2-hydroxyisobutyrate (present invention), precursor amount 4-20 mg, naked eye
[2] = reaction solvent methyl 2-hydroxyisobutyrate (present invention), room temperature, precursor amount 4-20 mg, naked eye
[3] = reaction solvent t-amyl alcohol (KR 10-0789847), precursor amount 4-20 mg, naked eye
[4] = reaction solvent t-amyl alcohol (KR 10-0789847), room temperature, precursor amount 4-20 mg, naked eye

SMILES | State of the solution after cooling to room temperature (methyl-2-hydroxyisobutyrate, dissolved at 60° C., then cooled to room temperature) | Solubility 60° C. [1] | Solubility Room temperature [2] | Solubility 60° C. [3] | Solubility Room temperature [4] | State of the solution when the temperature dropped to room temperature (dissolved at 60° C.) | Solubility Room temperature | State of the solution after cooling to room temperature | Solubility Room temperature (reaction solvent methyl 2-hydroxyisobutyrate (present invention), room temperature, precursor amount 4-20 mg, naked eye, p-toluenesulfonate)
CN(C(=O)OC(C)(C)C)c1ccc(-c2nc3ccc(OC[C@@H](COS(=O)(=O)c4ccc([N+](=O)[O-])cc4)OC4CCCCO4)cc3s2)cn1 (some centres unmarked) [FC119S] | remained as a solution | dissolved | undissolved | not dissolved; also recorded: undissolved | undissolved | – | – | – | –
CC(=O)OC[C@H]1O[C@@H](OC(C)=O)[C@@H](OS(=O)(=O)C(F)(F)F)[C@@H](OC(C)=O)[C@@H]1OC(C)=O [FDG, 1,3,4,6-tetra-O-acetyl-2-O-trifluoro-methanesulfonyl-beta-D-mannopyranose] | – | dissolved | dissolved | dissolved | undissolved | precipitated again as solids | – | – | –
Cc1cn([C@H]2C[C@H](OS(=O)(=O)c3ccc([N+](=O)[O-])cc3)[C@@H](COC(c3ccccc3)(c3ccccc3)c3ccccc3)O2)c(=O)n(C(=O)OC(C)(C)C)c1=O [FLT, 3-N-Boc-5′-O-trityl-3′-O-nosyl-thymidine] | – | – | – | – | – | – | undissolved | remained as a solution | –
COC(=O)[C@H]1[C@@H](c2ccc(I)cc2)C[C@@H]2CC[C@H]1[N+]21CCC1.Cc1ccc(S(=O)(=O)[O-])cc1 [FP-CIT, (1′R, 2′S, 3′S, 5′S)-3′-(4-iodophenyl)-2′-(methoxycarbonyl)spiro[azetidine-1,8′-bicyclo[3,2,1]octan]-1-ium p-toluenesulfonate] | – | dissolved | – | dissolved | undissolved | precipitated again as solids | – | – | completely dissolved
